Measured values taken from PubChem BioAssay AID248 (DTP/NCI, 2004).
“And” between values parts separate entries of the source, which are not always exact repeats. Equal values may be shown once. Inconclusive results and toxic doses are left out. Peptide text beside a SMILES is read from it. * marks the point of attachment. Cbz = O=C(OCc1ccccc1)*

Tested on: L1210 leukemia ip in BDF1 mice, survival T/C
Test: NCI In Vivo Anticancer Drug Screen. Data for tumor model L1210 Leukemia (intraperitoneal) in B6D2F1 (BDF1) mice
Settings: higher = longer survival
Procedure, shortened: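 Transplantable tumor model; survival measured in treated vs vehicle control mice. Value = treated/control.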

[1] = endpoint: mean survival time, dose: 100.0 mg/kg/injection, schedule: Q01DX009 (ip), vehicle: saline
[2] = endpoint: mean survival time, dose: 200.0 mg/kg/injection, schedule: Q01DX009 (ip), vehicle: saline
[3] = endpoint: mean survival time, dose: 400.0 mg/kg/injection, schedule: Q01DX009 (ip), vehicle: saline
[4] = endpoint: mean survival time, dose: 100.0 mg/kg/injection, schedule: Q01DX009 (ip), vehicle: Klucel (hydroxypropylcellulose) (HPC)
[5] = endpoint: mean survival time, dose: 100.0 mg/kg/injection, schedule: Q04DX003 (ip), vehicle: Klucel (hydroxypropylcellulose) (HPC)
[6] = endpoint: mean survival time, dose: 200.0 mg/kg/injection, schedule: Q01DX009 (ip), vehicle: Klucel (hydroxypropylcellulose) (HPC)
[7] = endpoint: mean survival time, dose: 200.0 mg/kg/injection, schedule: Q04DX003 (ip), vehicle: Klucel (hydroxypropylcellulose) (HPC)
[8] = endpoint: mean survival time, dose: 400.0 mg/kg/injection, schedule: Q01DX009 (ip), vehicle: Klucel (hydroxypropylcellulose) (HPC)
[9] = endpoint: mean survival time, dose: 100.0 mg/kg/injection, schedule: Q01DX001 (ip), vehicle: saline
[10] = endpoint: mean survival time, dose: 100.0 mg/kg/injection, schedule: Q04DX003 (ip), vehicle: saline with Tween-80
[11] = endpoint: mean survival time, dose: 400.0 mg/kg/injection, schedule: Q04DX003 (ip), vehicle: saline with Tween-80

## N=c1ccn2c(n1)OC1C(OP(=O)(O)O)C(CO)OC12 (stereo not given)
endpoint: mean survival time, dose: 5.0 mg/kg/injection, schedule: Q01DX009 (ip), vehicle: saline
  T/C: 115 % of control
endpoint: mean survival time, dose: 25.0 mg/kg/injection, schedule: Q01DX009 (oral), vehicle: saline
  T/C: 172 % of control
endpoint: mean survival time, dose: 40.0 mg/kg/injection, schedule: Q01DX009 (ip), vehicle: saline
  T/C: 152 % of control
endpoint: mean survival time, dose: 50.0 mg/kg/injection, schedule: Q01DX009 (oral), vehicle: saline
  T/C: 167 % of control
endpoint: mean survival time, dose: 80.0 mg/kg/injection, schedule: Q01DX009 (ip), vehicle: saline
  T/C: 175 % of control
endpoint: mean survival time, dose: 100.0 mg/kg/injection, schedule: Q01DX005 (ip), vehicle: saline
  T/C: 152 % of control and 160 % of control
[1]
  T/C: 184 % of control and 185 % of control
endpoint: mean survival time, dose: 100.0 mg/kg/injection, schedule: Q01DX009 (oral), vehicle: saline
  T/C: 190 % of control
endpoint: mean survival time, dose: 160.0 mg/kg/injection, schedule: Q01DX009 (ip), vehicle: saline
  T/C: 164 % of control
endpoint: mean survival time, dose: 200.0 mg/kg/injection, schedule: Q01DX005 (ip), vehicle: saline
  T/C: 168 % of control and 178 % of control
[2]
  T/C: 163 % of control and 195 % of control
endpoint: mean survival time, dose: 200.0 mg/kg/injection, schedule: Q01DX009 (oral), vehicle: saline
  T/C: 201 % of control
[3]
  T/C: 192 % of control and 212 % of control
endpoint: mean survival time, dose: 400.0 mg/kg/injection, schedule: Q01DX009 (oral), vehicle: saline
  T/C: 245 % of control
endpoint: mean survival time, dose: 800.0 mg/kg/injection, schedule: Q01DX009 (oral), vehicle: saline
  T/C: 260 % of control
endpoint: median survival time, dose: 12.5 mg/kg/injection, schedule: Q01DX009 (oral), vehicle: saline
  T/C: 109 % of control
endpoint: median survival time, dose: 12.5 mg/kg/injection, schedule: Q03HX008 (oral), vehicle: water
  T/C: 111 % of control
endpoint: median survival time, dose: 25.0 mg/kg/injection, schedule: Q01DX009 (oral), vehicle: saline
  T/C: 109 % of control
endpoint: median survival time, dose: 25.0 mg/kg/injection, schedule: Q03HX008 (oral), vehicle: water
  T/C: 111 % of control
endpoint: median survival time, dose: 25.0 mg/kg/injection, schedule: Q03HX024 (oral), vehicle: water
  T/C: 172 % of control
endpoint: median survival time, dose: 50.0 mg/kg/injection, schedule: Q01DX009 (oral), vehicle: saline
  T/C: 109 % of control
endpoint: median survival time, dose: 50.0 mg/kg/injection, schedule: Q01DX009 (oral), vehicle: water
  T/C: 150 % of control
endpoint: median survival time, dose: 50.0 mg/kg/injection, schedule: Q03HX024 (oral), vehicle: water
  T/C: 188 % of control
endpoint: median survival time, dose: 100.0 mg/kg/injection, schedule: Q01DX009 (oral), vehicle: water
  T/C: 166 % of control
endpoint: median survival time, dose: 100.0 mg/kg/injection, schedule: Q03HX024 (oral), vehicle: water
  T/C: 194 % of control
endpoint: median survival time, dose: 200.0 mg/kg/injection, schedule: Q01DX001 (oral), vehicle: saline
  T/C: 100 % of control
endpoint: median survival time, dose: 200.0 mg/kg/injection, schedule: Q01DX001 (oral), vehicle: water
  T/C: 116 % of control
endpoint: median survival time, dose: 200.0 mg/kg/injection, schedule: Q01DX009 (oral), vehicle: water
  T/C: 188 % of control
endpoint: median survival time, dose: 200.0 mg/kg/injection, schedule: Q03HX008 (oral), vehicle: water
  T/C: 161 % of control
endpoint: median survival time, dose: 200.0 mg/kg/injection, schedule: Q03HX024 (oral), vehicle: water
  T/C: 200 % of control
endpoint: median survival time, dose: 400.0 mg/kg/injection, schedule: Q01DX001 (oral), vehicle: saline
  T/C: 90 % of control
endpoint: median survival time, dose: 400.0 mg/kg/injection, schedule: Q01DX001 (oral), vehicle: water
  T/C: 122 % of control
endpoint: median survival time, dose: 400.0 mg/kg/injection, schedule: Q01DX009 (oral), vehicle: saline
  T/C: 177 % of control
endpoint: median survival time, dose: 400.0 mg/kg/injection, schedule: Q01DX009 (oral), vehicle: water
  T/C: 211 % of control
endpoint: median survival time, dose: 400.0 mg/kg/injection, schedule: Q03HX008 (oral), vehicle: water
  T/C: 111 % of control
endpoint: median survival time, dose: 400.0 mg/kg/injection, schedule: Q03HX024 (oral), vehicle: water
  T/C: 94 % of control
endpoint: median survival time, dose: 400.0 mg/kg/injection, schedule: Q04DX003 (oral), vehicle: water
  T/C: 155 % of control
endpoint: median survival time, dose: 800.0 mg/kg/injection, schedule: Q01DX009 (oral), vehicle: saline
  T/C: 200 % of control
endpoint: median survival time, dose: 800.0 mg/kg/injection, schedule: Q04DX003 (oral), vehicle: water
  T/C: 177 % of control
endpoint: median survival time, dose: 1600.0 mg/kg/injection, schedule: Q01DX001 (oral), vehicle: saline
  T/C: 154 % of control
endpoint: median survival time, dose: 1600.0 mg/kg/injection, schedule: Q04DX003 (oral), vehicle: water
  T/C: 188 % of control
endpoint: median survival time, dose: 3200.0 mg/kg/injection, schedule: Q01DX001 (oral), vehicle: saline
  T/C: 168 % of control
endpoint: median survival time, dose: 3200.0 mg/kg/injection, schedule: Q04DX003 (oral), vehicle: water
  T/C: 166 % of control

## O=C(O)CNC(=O)CNC(=O)OCc1ccccc1 (Cbz-Gly-Gly-OH)
[4]
  T/C: 95 % of control
[5]
  T/C: 97 % of control
[6]
  T/C: 95 % of control
[7]
  T/C: 101 % of control
[8]
  T/C: 100 % of control
endpoint: mean survival time, dose: 400.0 mg/kg/injection, schedule: Q04DX003 (ip), vehicle: Klucel (hydroxypropylcellulose) (HPC)
  T/C: 94 % of control

## N#CCCN(Cc1ccncc1)CN1C(=O)c2ccccc2C1=O
[4]
  T/C: 101 % of control
[6]
  T/C: 87 % of control
[8]
  T/C: 96 % of control

## c1ccc2c(c1)NC(SSC1Nc3ccccc3S1)S2 (stereo not given)
[9]
  T/C: 94 % of control
endpoint: mean survival time, dose: 200.0 mg/kg/injection, schedule: Q01DX001 (ip), vehicle: saline
  T/C: 88 % of control
endpoint: mean survival time, dose: 400.0 mg/kg/injection, schedule: Q01DX001 (ip), vehicle: saline
  T/C: 94 % of control

## Cc1cc(N(CCCOS(C)(=O)=O)CCCOS(C)(=O)=O)ccc1C=Nc1ccc2ccccc2c1
endpoint: mean survival time, dose: 25.0 mg/kg/injection, schedule: Q04DX003 (ip), vehicle: saline with Tween-80
  T/C: 98 % of control
endpoint: mean survival time, dose: 50.0 mg/kg/injection, schedule: Q04DX003 (ip), vehicle: saline with Tween-80
  T/C: 98 % of control
[10]
  T/C: 98 % of control
[11]
  T/C: 93 % of control

## N/N=C(\N)NC(=O)c1ccccc1
endpoint: mean survival time, dose: 15.0 mg/kg/injection, schedule: Q01DX Z (ip), vehicle: saline
  T/C: 103 % of control
endpoint: mean survival time, dose: 30.0 mg/kg/injection, schedule: Q01DX Z (ip), vehicle: saline
  T/C: 97 % of control
endpoint: mean survival time, dose: 60.0 mg/kg/injection, schedule: Q01DX Z (ip), vehicle: saline
  T/C: 94 % of control
endpoint: mean survival time, dose: 120.0 mg/kg/injection, schedule: Q01DX Z (ip), vehicle: saline
  T/C: 105 % of control
endpoint: mean survival time, dose: 240.0 mg/kg/injection, schedule: Q01DX Z (oral), vehicle: saline
  T/C: 108 % of control
endpoint: mean survival time, dose: 480.0 mg/kg/injection, schedule: Q01DX Z (oral), vehicle: saline
  T/C: 95 % of control
endpoint: mean survival time, dose: 960.0 mg/kg/injection, schedule: Q01DX Z (oral), vehicle: saline
  T/C: 103 % of control
endpoint: mean survival time, dose: 1920.0 mg/kg/injection, schedule: Q01DX Z (oral), vehicle: saline
  T/C: 101 % of control

## CC(O)CNC(=S)c1ccccc1 (stereo not given)
endpoint: mean survival time, dose: 100.0 mg/kg/injection, schedule: Q04DX002 (ip), vehicle: saline with Tween-80
  T/C: 101 % of control
endpoint: mean survival time, dose: 200.0 mg/kg/injection, schedule: Q04DX002 (ip), vehicle: saline with Tween-80
  T/C: 101 % of control

## N=C(N)SCC(CSC(=N)N)c1cnnc2ccccc12 (stereo not given)
[9]
  T/C: 102 % of control

## CN(C)CCNC(=O)N(C)C
[1]
  T/C: 95 % of control
endpoint: mean survival time, dose: 100.0 mg/kg/injection, schedule: Q04DX003 (ip), vehicle: saline
  T/C: 92 % of control
[2]
  T/C: 98 % of control
endpoint: mean survival time, dose: 200.0 mg/kg/injection, schedule: Q04DX003 (ip), vehicle: saline
  T/C: 100 % of control
[3]
  T/C: 102 % of control
endpoint: mean survival time, dose: 400.0 mg/kg/injection, schedule: Q04DX003 (ip), vehicle: saline
  T/C: 97 % of control

## CC(C)(C)OC1C=CCCC1 (stereo not given)
[10]
  T/C: 96 % of control
endpoint: mean survival time, dose: 200.0 mg/kg/injection, schedule: Q04DX003 (ip), vehicle: saline with Tween-80
  T/C: 96 % of control
[11]
  T/C: 96 % of control

## Cc1n(-c2ccccc2)c2c([n+]1Cc1ccc([N+](=O)[O-])cc1)C(=O)c1ccccc1C2=O
endpoint: mean survival time, dose: 5.0 mg/kg/injection, schedule: Q01DX001 (ip), vehicle: other
  T/C: 106 % of control
endpoint: mean survival time, dose: 10.0 mg/kg/injection, schedule: Q01DX001 (ip), vehicle: other
  T/C: 101 % of control
endpoint: mean survival time, dose: 20.0 mg/kg/injection, schedule: Q01DX001 (ip), vehicle: other
  T/C: 93 % of control
endpoint: mean survival time, dose: 40.0 mg/kg/injection, schedule: Q01DX001 (ip), vehicle: other
  T/C: 95 % of control

## C=C1C(=O)OC2C1C(OC(=O)/C(C)=C/COC(C)=O)CC1(CO1)C1C(O)C=C(C)C21 (stereo not given)
endpoint: mean survival time, dose: 12.5 mg/kg/injection, schedule: Q01DX009 (ip), vehicle: alcohol
  T/C: 103 % of control
endpoint: mean survival time, dose: 25.0 mg/kg/injection, schedule: Q01DX009 (ip), vehicle: alcohol
  T/C: 105 % of control
endpoint: mean survival time, dose: 50.0 mg/kg/injection, schedule: Q01DX009 (ip), vehicle: alcohol
  T/C: 105 % of control and 107 % of control

## CCSc1nc(N)c(C#N)cc1C#N
[4]
  T/C: 105 % of control
[5]
  T/C: 88 % of control
[6]
  T/C: 95 % of control
[7]
  T/C: 95 % of control
